# Test results taken from patent publication US20230279355A1, “METHOD FOR THE IN VITRO OR EX VIVO AMPLIFICATION OF STEM CELLS OF BROWN OR BEIGE ADIPOCYTES” (CENTRE NATIONAL DE LA RECHERCHE SCIENTIFIQUE, priority 2020, published 2023).
# Tests used:
# cells in suspension = conditions: reported; cited from earlier work
# UCP1 = conditions: described in the literature; cited from earlier work
# hASCs = assay: differentiation of hASCs into adipocytes (PLIN1, UCP1 expression); type: cell-based, human
# Method: In order to determine the differentiation medium, different media were tested. These media were enriched with adipogenic factors then tested for the differentiation of the hASCs. […] It should also be noted that the medium n° 5 is an option to the EGM+ which has not been pursued further.
# [1] = system: hECs (endothelial cells of human adipose tissue)
# Method: In order to determine the proliferation medium, five mediums, which are generally marketed for the proliferation of human endothelial cells, were tested.
smiles,measurement,setting,value
C[C@@H](N)[C@H]1CC[C@H](C(=O)Nc2ccncc2)CC1 [Y27632],cell viability in suspension,cells in suspension,increasing the cell viability in suspension
"C[C@]12CCC(=O)C=C1CC[C@@H]1[C@@H]2[C@@H](O)C[C@@]2(C)[C@H]1CC[C@]2(O)C(=O)CO [hydrocortisone, Hydrocortisone]",expression of UCP1,UCP1,able to inhibit the expression of UCP1
NC(=O)c1ccc(-c2nc(-c3ccc4c(c3)OCO4)c(-c3ccccn3)[nH]2)cc1 [SB431542],expression of UCP1,hASCs; addition of SB431542 and maintenance of Rosiglitazone,allows the expression of UCP1
same,differentiation into adipocytes (PLIN1),"hASCs; dexamethasone and IBMX removed after the first three days, SB431542 added",allows restoring the differentiation
same,viability of hECs,[1],no consequence upon the viability of hECs
